Experiments:
TLR8 = molecular target: T1, TLR8 (Homo sapiens, UniProt Q9NR97); assay: PBMC stimulation with DOTAP-complexed RNA ligands, TNF-α ELISA; assay type: cell-based
T1 construct: Peripheral blood mononuclear cells (PBMCs) were obtained from buffy coats from healthy adult donors; endogenous in cells; host or cells: primary human PBMCs from healthy donor buffy coats (TLR8 in monocytes)
T1 sequence (Q9NR97 27-1041): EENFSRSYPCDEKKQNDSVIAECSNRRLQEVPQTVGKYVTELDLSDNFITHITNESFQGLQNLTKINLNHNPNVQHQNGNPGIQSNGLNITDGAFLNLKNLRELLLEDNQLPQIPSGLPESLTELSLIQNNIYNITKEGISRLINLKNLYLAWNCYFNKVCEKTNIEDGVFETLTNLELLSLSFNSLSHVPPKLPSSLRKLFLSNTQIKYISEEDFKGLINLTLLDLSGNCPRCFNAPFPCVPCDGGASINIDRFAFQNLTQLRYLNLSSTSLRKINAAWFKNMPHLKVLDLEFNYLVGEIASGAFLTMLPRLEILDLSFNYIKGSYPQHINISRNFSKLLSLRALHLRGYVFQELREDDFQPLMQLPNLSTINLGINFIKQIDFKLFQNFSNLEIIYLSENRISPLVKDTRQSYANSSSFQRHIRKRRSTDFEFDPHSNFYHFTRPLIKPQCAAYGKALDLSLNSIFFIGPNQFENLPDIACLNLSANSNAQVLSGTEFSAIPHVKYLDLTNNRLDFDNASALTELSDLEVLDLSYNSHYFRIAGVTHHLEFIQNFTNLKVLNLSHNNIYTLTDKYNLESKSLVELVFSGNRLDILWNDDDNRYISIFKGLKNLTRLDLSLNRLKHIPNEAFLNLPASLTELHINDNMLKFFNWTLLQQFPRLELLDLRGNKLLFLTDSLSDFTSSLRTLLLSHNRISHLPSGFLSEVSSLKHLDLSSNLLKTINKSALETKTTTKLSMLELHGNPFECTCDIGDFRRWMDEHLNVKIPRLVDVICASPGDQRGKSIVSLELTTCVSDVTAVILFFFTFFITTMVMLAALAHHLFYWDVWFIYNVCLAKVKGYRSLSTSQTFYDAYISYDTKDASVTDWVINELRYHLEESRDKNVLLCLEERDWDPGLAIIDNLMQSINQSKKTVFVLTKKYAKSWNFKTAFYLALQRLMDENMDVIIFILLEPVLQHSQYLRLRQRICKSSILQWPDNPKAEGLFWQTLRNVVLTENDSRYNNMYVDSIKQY

TLR7 [1] = molecular target: T2, TLR7 (Homo sapiens, UniProt Q9NYK1); assay: PBMC stimulation with DOTAP-complexed RNA ligands, IFN-α ELISA; assay type: cell-based
T2 construct: Peripheral blood mononuclear cells (PBMCs) were obtained from buffy coats from healthy adult donors; endogenous in cells; host or cells: primary human PBMCs from healthy donor buffy coats (TLR7 expressed by pDCs)
T2 sequence (Q9NYK1 27-1049): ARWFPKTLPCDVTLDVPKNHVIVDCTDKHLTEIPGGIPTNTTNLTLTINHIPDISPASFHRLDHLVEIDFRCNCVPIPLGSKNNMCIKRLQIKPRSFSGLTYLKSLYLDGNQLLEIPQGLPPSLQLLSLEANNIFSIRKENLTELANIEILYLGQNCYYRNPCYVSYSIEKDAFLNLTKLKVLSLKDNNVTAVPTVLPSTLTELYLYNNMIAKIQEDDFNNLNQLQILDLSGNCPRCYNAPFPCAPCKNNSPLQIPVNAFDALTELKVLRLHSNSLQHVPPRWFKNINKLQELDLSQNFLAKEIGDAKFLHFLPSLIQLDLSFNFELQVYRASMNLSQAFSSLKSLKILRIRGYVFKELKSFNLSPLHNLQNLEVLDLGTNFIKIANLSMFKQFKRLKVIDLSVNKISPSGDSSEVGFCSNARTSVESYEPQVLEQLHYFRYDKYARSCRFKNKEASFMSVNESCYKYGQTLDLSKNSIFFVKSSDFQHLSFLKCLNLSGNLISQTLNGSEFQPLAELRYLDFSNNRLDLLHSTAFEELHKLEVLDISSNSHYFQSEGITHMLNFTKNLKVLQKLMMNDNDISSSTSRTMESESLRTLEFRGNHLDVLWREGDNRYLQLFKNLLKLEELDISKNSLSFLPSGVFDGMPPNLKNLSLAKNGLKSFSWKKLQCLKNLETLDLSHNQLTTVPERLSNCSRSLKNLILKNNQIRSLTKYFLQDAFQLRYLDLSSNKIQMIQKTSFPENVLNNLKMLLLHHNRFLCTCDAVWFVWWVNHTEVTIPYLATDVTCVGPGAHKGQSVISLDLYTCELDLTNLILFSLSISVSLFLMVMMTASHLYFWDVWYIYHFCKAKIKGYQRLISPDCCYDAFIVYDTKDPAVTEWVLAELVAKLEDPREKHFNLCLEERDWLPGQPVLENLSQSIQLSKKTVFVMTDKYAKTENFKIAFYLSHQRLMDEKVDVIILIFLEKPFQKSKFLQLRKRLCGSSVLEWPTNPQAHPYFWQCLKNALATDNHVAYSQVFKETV

recombinant RNase T2 = recombinant RNase T2 (Homo sapiens, UniProt O00584)
TLR7 [2] = molecular target: T2, TLR7; assay: PBMC stimulation with p-L-arginine-complexed RNA ligands, IFN-α ELISA; assay type: cell-based
Protocol: Peripheral blood mononuclear cells (PBMCs) were obtained from buffy coats from healthy adult donors. Buffy coat samples were first diluted with an equal volume of phosphate-buffered saline (PBS). Next, PBMCs were isolated via density gradient centrifugation with Lymphoprep density gradient media ([…] Technologies) and SepMate-50 tubes ([…] Technologies). Samples were centrifuged at 1000 g for 15 minutes. After centrifugation, the upper layers were collected by pouring into a new tube, diluted with PBS, and centrifuged at 450×g for 5 minutes. To lyse red blood cells, cell pellets were resuspended with 10 mL Ammonium-Chloride-Potassium (ACK) Lysis Buffer and incubated for 8 minutes at room temperature. After lysis, cells were washed with PBS and passed through two 70 μm cell strainers. Viable cell counts were determined with a Vi-CELL cell counter (Beckman Coulter). […] Guanosine was added between about 20 and about 30 minutes before the addition of poly-[…])-complexed RNA. […] After mixing by pipetting up and down, the reaction was incubated for 10 minutes, pipetted up and down again, and then added to the cells. In some experiments, RNA ligands were used at a final concentration of 0.6 μg/ml. Where indicated as “+2'3' cGMP”, 2'3' cyclic GMP purchased from eMolecules was complexed together with the RNA ligands. The final concentration of 2'3' cyclic GMP was 5 μg/ml. p-L-arginine was adjusted accordingly to keep the mass ratio of nucleic acid:p-L-arginine constant. Cell culture supernatants were collected 15-18 hours after stimulation and stored at -80° C. Cytokines in cell culture supernatants were detected with the BD OptEIA human TNF ELISA Set (BD Biosciences), and either Invitrogen IFN alpha Human Matched Antibody Pair kit (Thermo Fisher Scientific) or Human IFN Alpha Multi-Subtype ELISA Kit (PBL Assay Science). To test the effects of the RNA ligands described in Example 1 on TLR7 and TLR8 activation, PBMCs were stimulated with the RNA ligands using p-L-arginine complex delivery, delivery with DOTAP, or delivery without a carrier. Activity of TLR7 and TLR8 was assessed based on measurements of IFN-α or TNF-α by enzyme-linked immunosorbent assays (ELISA). In this setting, as depicted in FIG. 6, IFN-α induced by small RNAs is derived from TLR7 expressed by pDCs, or from RIG-I expressed by monocytes. In contrast, TNF-α secretion is derived from monocytes and serves as an indication of TLR8 activation. As shown in this figure, the p-L-arginine delivery restricts most of the activation to TLRs. First, the effects of the RNA ligands on TLR7 and TLR8 activation using p-L-arginine complex delivery were tested.

Chain of recombinant RNase T2 (O00584 25-256, species assumed): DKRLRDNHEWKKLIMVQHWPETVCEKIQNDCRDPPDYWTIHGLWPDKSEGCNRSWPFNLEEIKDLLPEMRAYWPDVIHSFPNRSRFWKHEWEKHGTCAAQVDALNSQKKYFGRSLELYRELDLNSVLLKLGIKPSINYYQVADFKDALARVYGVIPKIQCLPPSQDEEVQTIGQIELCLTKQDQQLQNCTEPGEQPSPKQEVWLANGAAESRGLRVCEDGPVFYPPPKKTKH

## CCUUCUUCUUCUUCUUCUUC (CCUUCUUCUUCUUCUUCUUC; all phosphodiester, sugars by position not given here) [ORN7009, reference compound]
TLR8
  TNF-α secretion (TLR8 activity): activated TLR8
TLR7 [1]
  IFN-α secretion (TLR7 activity): activated TLR8 rather than TLR7
Recombinant RNase T2
  Degradation of full RNA ligand by RNase T2: degraded more quickly
TLR7 [2]
  IFN-α secretion (TLR7 activity): no or only minor IFN-α secretion
